pKi: −log10 of the molar value.
Experiments:
Mus musculus [1] = assay: Effect on immobility time in the forced swimming test (FST) in mice at 0.001 mg/kg dose; format: functional
Mus musculus [2] = assay: Effect on immobility time in the forced swimming test (FST) in mice at 0.01 mg/kg dose; format: functional
Mus musculus [3] = assay: Time-dependent effect on 8-OH-DPAT-induced hypothermia (change in body temperature) after 15 min, in mice at 0.01 mg/kg dose; format: functional
Mus musculus [4] = assay: Time-dependent effect on 8-OH-DPAT-induced hypothermia (change in body temperature) after 60 min, in mice at 0.01 mg/kg dose; format: functional
Rattus norvegicus [5] = assay: Effect on helpless behavior in rats and the number of escape failures was determined in shuttle-box session-1 (SB-1) at 10 mg/kg dose; format: functional
Rattus norvegicus [6] = assay: Effect on helpless behavior in rats and the number of escape failures was determined in shuttle-box session-2 (SB-2) at 10 mg/kg dose; format: functional
Rattus norvegicus [7] = assay: Effect on helpless behavior in rats and the number of escape failures was determined in shuttle-box session-3 (SB-) at 1 mg/kg dose; format: functional
Rattus norvegicus [8] = assay: Effect on helpless behavior in rats and the number of escape failures was determined in shuttle-box session-3 (SB-3) at 10 mg/kg dose; format: functional
[9] = target: 5-hydroxytryptamine receptor 1D (Homo sapiens, UniProt P28221); assay: Affinity at 5-hydroxytryptamine 1D receptor (For sumatriptan = Ki (nM)-12+/-1.9)
Chain of 5-hydroxytryptamine receptor 1D (P28221 whole entry): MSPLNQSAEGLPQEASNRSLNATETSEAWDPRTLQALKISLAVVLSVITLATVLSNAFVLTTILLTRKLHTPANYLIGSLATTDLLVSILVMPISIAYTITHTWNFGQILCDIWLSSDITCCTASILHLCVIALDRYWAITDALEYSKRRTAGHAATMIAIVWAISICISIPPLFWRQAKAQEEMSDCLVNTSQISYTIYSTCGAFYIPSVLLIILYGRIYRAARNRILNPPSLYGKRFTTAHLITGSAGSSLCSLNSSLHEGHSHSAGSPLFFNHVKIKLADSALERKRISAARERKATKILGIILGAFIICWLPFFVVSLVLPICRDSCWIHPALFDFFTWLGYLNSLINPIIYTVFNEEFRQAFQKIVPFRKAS

[10] = target: 5-hydroxytryptamine receptor 2A (Rattus norvegicus, UniProt P14842); assay: Affinity at 5-hydroxytryptamine 2 receptor (For ketanserin = Ki(nM)= 0.7+/-0.09)
Chain of 5-hydroxytryptamine receptor 2A (P14842 whole entry): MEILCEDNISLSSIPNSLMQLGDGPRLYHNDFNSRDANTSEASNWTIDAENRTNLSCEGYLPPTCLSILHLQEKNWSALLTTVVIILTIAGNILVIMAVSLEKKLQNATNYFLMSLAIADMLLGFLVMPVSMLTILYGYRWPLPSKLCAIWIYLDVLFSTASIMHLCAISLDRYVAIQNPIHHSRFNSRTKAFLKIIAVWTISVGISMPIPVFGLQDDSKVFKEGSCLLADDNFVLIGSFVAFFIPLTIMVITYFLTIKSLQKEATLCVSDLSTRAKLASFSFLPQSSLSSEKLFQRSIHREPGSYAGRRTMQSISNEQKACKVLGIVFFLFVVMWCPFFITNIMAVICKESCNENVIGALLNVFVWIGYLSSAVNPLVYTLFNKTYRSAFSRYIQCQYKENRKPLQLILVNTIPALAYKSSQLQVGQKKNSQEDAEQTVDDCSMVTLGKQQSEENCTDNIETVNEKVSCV

[11] = target: T1, Adrenergic receptor alpha-2 (Rattus norvegicus, UniProt P22086+P19328+P22909); assay: Affinity towards alpha-2 adrenergic receptor (For clonidine Ki(nM)= […]+/-[…]); format: protein assay
T1 sequence (P22086 whole entry): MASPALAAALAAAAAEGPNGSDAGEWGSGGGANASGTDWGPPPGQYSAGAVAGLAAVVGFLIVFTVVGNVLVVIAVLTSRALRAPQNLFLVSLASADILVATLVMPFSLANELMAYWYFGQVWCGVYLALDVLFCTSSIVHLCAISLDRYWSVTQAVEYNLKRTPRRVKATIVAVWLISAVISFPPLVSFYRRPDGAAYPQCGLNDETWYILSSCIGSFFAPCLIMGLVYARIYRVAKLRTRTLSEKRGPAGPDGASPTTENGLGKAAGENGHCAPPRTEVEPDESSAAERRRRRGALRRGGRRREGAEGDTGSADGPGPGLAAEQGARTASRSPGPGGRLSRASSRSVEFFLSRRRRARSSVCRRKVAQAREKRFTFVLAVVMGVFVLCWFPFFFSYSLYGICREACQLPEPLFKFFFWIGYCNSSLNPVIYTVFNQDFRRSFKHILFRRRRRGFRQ
T1 sequence (P19328 whole entry): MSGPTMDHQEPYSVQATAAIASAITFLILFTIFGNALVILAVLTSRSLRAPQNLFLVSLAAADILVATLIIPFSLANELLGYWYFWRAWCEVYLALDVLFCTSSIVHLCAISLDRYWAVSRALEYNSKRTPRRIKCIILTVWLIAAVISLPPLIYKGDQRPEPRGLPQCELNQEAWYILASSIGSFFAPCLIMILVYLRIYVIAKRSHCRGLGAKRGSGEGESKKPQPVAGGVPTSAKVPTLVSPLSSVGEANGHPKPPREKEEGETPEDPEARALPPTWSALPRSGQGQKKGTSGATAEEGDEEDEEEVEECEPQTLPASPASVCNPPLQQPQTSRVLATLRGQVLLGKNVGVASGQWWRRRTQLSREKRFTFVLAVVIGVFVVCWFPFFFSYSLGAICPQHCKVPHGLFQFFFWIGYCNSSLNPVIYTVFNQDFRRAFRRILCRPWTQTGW
T1 sequence (P22909 whole entry): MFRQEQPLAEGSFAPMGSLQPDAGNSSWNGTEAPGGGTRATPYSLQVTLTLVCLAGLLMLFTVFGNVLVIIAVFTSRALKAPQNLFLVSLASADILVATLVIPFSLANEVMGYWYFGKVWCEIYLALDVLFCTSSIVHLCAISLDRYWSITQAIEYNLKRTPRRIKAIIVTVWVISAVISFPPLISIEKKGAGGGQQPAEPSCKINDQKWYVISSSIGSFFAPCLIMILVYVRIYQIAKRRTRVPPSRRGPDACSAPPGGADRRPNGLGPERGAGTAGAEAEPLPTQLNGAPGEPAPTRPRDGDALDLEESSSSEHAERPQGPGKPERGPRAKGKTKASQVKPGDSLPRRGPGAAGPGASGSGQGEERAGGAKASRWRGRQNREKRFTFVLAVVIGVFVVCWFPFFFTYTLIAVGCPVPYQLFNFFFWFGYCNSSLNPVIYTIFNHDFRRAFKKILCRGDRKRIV

D(2) dopamine receptor = D(2) dopamine receptor (Rattus norvegicus, UniProt P61169); assay: Affinity at dopamine D2 receptor, (For haloperidol Ki(nM)= 1.5+/-1.2)
Chain of D(2) dopamine receptor (P61169 whole entry): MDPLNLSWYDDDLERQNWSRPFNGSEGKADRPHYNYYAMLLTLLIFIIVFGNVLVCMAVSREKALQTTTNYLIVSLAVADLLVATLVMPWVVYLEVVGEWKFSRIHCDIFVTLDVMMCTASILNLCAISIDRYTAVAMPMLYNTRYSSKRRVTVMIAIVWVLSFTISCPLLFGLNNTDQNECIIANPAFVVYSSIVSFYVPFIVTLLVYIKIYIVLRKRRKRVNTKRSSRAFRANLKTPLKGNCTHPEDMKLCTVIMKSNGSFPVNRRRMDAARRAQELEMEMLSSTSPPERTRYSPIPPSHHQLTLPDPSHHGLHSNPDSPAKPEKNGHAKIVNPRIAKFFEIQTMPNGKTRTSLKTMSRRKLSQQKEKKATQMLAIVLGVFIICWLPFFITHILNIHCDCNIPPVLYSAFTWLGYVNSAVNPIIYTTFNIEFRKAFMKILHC

Mus musculus [12] = assay: Antidepressant-like activity in the forced swimming test (FST) in mice at 1 mg/kg dose; format: functional
Mus musculus [13] = assay: Antidepressant-like activity in the forced swimming test (FST) in mice at 10 mg/kg dose; format: functional
Adrenergic receptor beta = Adrenergic receptor beta (Rattus norvegicus, UniProt P18090+P10608+P26255); assay: Affinity at beta-adrenoceptor (For DHA Ki(nM)= 3.5+/-0.3); format: protein assay
Mus musculus [14] = assay: Antidepressant-like activity in the forced swimming test (FST) in mice at 0.1 mg/kg dose; format: functional
[15] = target: T2, 5-hydroxytryptamine receptor 1A (Homo sapiens) (UniProt P08908); assay: Percent increase in the Forskolin-Stimulated cAMP formation, in HeLa cells transfected with the 5-HT 1A receptor a [compound (1 uM)]; format: functional, cell-based
T2 sequence (whole entry): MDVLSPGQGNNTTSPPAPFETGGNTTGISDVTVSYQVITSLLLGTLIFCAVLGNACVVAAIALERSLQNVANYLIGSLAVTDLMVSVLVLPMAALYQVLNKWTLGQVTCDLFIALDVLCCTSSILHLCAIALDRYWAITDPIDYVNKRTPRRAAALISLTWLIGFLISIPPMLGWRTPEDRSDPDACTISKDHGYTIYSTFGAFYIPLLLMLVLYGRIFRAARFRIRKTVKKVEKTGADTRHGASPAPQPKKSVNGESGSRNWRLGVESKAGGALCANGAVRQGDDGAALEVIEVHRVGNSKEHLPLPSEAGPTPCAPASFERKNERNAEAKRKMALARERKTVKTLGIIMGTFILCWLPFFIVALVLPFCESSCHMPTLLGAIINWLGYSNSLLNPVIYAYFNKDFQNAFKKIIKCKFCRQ

For `COc1ccccc1N1CCN(CCC(O)c2csc3ccccc23)CC1` (configuration not stated), the Immobility time (Mus musculus [1]) was <58.8 s, the Immobility time (Mus musculus [2]) was <54.4 s and the Temperature change (Mus musculus [3]) was -1.26 °C. For the same compound, the Temperature change (Mus musculus [4]) was -0.73 °C, the “No. of escape failures” value (Rattus norvegicus [5]) was 6.6 and the “No. of escape failures” value (Rattus norvegicus [6]) was 3.2. For the same compound, the “No. of escape failures” value (Rattus norvegicus [7]) was 1.8 and the “No. of escape failures” value (Rattus norvegicus [8]) was 4.

`COc1ccccc1N1CCN(CCC(=O)c2csc3ccccc23)CC1` was tested, and the pKi [9] was 5.30, the pKi [10] was 5.30 and the Ki [11] was 0.28 µM. The pKi (D(2) dopamine receptor) was 6.30, the Activity (Mus musculus [12]) was 60% and the Activity (Mus musculus [13]) was 54%. For the same compound, the Ki (Adrenergic receptor beta) was > 5 µM and the Activity (Mus musculus [14]) was 18%.

`COc1ccccc1N1CCN(CCC(Oc2cccc3ccccc23)c2ccsc2)CC1` (configuration not stated) showed a cAMP increase [15] of 52%.
